Assay results taken from article PMC10924921, “Mi-2β promotes immune evasion in melanoma by activating EZH2 methylation” (Nature Communications, 2024).

What was measured:
Experiment in all cases: biochemical
Design in all cases: KINOMEscan active-site competition binding panel (468 kinase assays), per cent of control at 1000 nM
Settings in all cases: KINOMEscan per cent of control (binding competition); read-out: Percent Control
MAST1 = MAST1 (Homo sapiens, UniProt Q9Y2H9)
Text: (§1) Figure S7 / Percent Control

MAP4K5 = MAP4K5 (Homo sapiens, UniProt Q9Y4K4)
Text: as §1

DYRK2 = DYRK2 (Homo sapiens, UniProt Q92630)
Sequence of DYRK2 (Q92630 whole entry): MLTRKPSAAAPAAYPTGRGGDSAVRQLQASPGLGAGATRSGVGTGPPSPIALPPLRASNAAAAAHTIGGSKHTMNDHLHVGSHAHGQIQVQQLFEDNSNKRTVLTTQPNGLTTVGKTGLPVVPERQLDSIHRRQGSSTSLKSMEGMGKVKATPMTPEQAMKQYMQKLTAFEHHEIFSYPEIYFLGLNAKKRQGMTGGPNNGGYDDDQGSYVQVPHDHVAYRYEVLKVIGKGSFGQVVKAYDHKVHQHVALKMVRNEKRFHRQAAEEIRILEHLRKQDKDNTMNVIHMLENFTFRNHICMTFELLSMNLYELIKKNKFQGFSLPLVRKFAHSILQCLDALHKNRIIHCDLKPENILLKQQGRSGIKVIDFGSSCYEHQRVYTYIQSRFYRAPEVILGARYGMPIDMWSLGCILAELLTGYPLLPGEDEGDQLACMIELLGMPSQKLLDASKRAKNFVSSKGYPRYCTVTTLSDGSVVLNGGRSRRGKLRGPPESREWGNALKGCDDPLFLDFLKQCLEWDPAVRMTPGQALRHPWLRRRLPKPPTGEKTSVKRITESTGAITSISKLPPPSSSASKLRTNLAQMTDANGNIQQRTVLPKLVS
Text: as §1

NLK = NLK (Homo sapiens, UniProt Q9UBE8)
Text: as §1

PRKCH = PRKCH (Homo sapiens, UniProt P24723)
Text: as §1

CSNK1E = CSNK1E (Homo sapiens, UniProt P49674)
Sequence of CSNK1E (P49674 whole entry): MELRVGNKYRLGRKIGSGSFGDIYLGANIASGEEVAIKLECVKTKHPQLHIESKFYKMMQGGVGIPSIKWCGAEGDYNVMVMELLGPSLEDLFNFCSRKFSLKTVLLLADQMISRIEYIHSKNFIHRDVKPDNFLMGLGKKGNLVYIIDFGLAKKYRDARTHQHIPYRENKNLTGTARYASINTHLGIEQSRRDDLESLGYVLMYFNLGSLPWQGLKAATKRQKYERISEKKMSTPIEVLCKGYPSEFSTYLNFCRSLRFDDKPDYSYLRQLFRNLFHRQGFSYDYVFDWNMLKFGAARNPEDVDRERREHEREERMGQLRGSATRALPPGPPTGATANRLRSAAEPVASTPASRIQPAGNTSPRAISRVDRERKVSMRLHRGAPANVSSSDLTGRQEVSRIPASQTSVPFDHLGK
Text: as §1

[1] = molecular target: T1, TYK2(JH2domain-pseudokinase) (Homo sapiens, UniProt P29597)
T1 construct: JH2domain-pseudokinase
T1 sequence (P29597 whole entry): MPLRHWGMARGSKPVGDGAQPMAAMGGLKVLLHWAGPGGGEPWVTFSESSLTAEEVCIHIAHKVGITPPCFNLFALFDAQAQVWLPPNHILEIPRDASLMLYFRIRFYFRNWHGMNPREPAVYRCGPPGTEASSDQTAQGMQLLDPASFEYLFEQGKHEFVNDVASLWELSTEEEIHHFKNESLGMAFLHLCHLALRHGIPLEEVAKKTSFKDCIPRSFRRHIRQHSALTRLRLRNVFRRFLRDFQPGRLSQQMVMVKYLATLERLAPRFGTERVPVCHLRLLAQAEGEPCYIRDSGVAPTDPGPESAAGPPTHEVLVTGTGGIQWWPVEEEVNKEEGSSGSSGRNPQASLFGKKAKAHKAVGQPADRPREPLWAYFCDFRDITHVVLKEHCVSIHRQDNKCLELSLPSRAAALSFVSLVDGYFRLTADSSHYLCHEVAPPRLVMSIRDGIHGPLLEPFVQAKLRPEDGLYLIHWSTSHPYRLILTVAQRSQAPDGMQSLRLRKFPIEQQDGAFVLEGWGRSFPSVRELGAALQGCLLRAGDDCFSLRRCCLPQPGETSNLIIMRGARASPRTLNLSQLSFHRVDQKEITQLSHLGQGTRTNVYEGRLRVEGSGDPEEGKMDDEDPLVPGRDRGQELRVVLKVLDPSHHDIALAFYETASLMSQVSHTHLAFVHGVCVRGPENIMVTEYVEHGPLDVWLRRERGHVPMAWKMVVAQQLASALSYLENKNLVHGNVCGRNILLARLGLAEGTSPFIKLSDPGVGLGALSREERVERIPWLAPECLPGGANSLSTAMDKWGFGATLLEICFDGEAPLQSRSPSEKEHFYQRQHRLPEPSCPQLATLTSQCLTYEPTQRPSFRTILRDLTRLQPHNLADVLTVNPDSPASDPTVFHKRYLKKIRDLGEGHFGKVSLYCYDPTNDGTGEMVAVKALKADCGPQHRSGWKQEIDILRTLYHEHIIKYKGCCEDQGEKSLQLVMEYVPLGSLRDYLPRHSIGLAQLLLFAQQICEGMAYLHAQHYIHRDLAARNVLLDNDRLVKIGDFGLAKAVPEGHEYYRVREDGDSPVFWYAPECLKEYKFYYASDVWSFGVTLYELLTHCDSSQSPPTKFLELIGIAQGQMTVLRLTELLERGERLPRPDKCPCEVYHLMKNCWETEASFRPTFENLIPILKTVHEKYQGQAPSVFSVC
Text: as §1

CSNK1D = CSNK1D (Homo sapiens, UniProt P48730)
Sequence of CSNK1D (P48730 whole entry): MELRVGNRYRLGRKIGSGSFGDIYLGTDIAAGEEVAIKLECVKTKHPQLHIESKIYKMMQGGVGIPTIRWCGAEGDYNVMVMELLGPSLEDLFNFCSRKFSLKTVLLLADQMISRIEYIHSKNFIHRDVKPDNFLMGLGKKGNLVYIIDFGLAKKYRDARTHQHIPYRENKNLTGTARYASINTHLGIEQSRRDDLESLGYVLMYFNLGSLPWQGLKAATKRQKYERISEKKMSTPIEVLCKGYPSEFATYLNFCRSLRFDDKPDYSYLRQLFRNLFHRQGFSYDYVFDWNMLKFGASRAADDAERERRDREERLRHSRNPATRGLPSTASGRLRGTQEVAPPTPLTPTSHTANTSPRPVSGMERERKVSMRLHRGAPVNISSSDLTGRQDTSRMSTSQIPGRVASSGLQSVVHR
Text: as §1

[2] = molecular target: T2, RSK2(Kin.Dom.1-N-terminal) (Homo sapiens, UniProt P51812)
T2 construct: gene RPS6KA3; Kin.Dom.1-N-terminal
T2 sequence (P51812 whole entry): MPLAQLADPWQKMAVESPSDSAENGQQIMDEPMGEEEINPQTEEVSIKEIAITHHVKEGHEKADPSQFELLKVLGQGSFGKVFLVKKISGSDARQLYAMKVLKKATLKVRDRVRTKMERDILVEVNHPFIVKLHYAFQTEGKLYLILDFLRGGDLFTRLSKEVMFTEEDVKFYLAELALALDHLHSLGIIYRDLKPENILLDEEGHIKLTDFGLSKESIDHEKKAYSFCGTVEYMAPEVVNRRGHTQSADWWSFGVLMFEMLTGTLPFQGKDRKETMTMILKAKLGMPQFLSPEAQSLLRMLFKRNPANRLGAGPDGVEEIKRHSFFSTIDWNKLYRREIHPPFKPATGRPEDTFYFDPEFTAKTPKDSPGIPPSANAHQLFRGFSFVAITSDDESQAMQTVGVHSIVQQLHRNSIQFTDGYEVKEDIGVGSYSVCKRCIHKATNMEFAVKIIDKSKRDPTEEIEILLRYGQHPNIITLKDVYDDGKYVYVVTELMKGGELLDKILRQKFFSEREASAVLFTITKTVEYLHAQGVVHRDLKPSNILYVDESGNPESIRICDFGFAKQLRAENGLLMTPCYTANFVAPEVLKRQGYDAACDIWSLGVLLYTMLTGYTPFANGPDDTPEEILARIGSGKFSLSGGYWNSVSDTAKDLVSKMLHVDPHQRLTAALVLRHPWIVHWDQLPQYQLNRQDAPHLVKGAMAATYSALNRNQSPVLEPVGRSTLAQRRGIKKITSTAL
Text: as §1

TNNI3K = TNNI3K (Homo sapiens, UniProt Q59H18)
Text: as §1

SRC = SRC (Homo sapiens, UniProt P12931)
Text: as §1

INSR = INSR (Homo sapiens, UniProt P06213)
Text: as §1

CDC2L1 = molecular target: T3, CDC2L1 (Homo sapiens, UniProt P21127)
T3 construct: gene CDK11B
Text: as §1

TAOK1 = TAOK1 (Homo sapiens, UniProt Q7L7X3)
Text: as §1

GRK7 = GRK7 (Homo sapiens, UniProt Q8WTQ7)
Text: as §1

YES = molecular target: T4, YES (Homo sapiens, UniProt P07947)
T4 construct: gene YES1
Text: as §1

DMPK = DMPK (Homo sapiens, UniProt Q09013)
Text: as §1

CASK = CASK (Homo sapiens, UniProt O14936)
Sequence of CASK (O14936 whole entry): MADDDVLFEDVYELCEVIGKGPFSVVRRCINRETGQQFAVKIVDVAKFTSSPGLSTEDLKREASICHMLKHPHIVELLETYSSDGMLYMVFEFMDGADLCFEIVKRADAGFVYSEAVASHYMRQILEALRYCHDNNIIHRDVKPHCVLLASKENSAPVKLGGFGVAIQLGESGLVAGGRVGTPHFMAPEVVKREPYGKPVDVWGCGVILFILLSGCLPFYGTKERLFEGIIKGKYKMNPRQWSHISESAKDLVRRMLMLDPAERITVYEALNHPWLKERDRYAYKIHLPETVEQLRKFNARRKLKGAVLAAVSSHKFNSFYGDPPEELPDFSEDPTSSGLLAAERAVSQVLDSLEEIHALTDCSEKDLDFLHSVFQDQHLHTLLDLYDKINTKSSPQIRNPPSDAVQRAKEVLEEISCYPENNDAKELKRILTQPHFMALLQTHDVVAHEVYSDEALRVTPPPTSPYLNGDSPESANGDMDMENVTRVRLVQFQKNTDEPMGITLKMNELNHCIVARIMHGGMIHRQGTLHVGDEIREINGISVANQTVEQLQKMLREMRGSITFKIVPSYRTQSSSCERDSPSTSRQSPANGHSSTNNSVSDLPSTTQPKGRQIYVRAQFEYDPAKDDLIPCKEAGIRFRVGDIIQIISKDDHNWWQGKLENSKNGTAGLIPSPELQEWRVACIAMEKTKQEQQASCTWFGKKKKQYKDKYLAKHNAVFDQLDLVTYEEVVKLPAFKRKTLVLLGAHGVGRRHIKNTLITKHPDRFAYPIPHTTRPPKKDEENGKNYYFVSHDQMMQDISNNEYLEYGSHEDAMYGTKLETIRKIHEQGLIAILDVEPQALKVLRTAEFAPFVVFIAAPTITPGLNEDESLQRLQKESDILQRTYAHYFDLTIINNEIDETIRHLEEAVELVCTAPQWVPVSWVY
Text: as §1

PIK3CA = PIK3CA (Homo sapiens, UniProt P42336)
Text: as §1

[3] = molecular target: T5, ABL1(E255K)-phosphorylated (Homo sapiens, UniProt P00519, E255K)
T5 construct: phosphorylated
Text: as §1

RIPK2 = RIPK2 (Homo sapiens, UniProt O43353)
Text: as §1

PRKCE = PRKCE (Homo sapiens, UniProt Q02156)
Sequence of PRKCE (Q02156 whole entry): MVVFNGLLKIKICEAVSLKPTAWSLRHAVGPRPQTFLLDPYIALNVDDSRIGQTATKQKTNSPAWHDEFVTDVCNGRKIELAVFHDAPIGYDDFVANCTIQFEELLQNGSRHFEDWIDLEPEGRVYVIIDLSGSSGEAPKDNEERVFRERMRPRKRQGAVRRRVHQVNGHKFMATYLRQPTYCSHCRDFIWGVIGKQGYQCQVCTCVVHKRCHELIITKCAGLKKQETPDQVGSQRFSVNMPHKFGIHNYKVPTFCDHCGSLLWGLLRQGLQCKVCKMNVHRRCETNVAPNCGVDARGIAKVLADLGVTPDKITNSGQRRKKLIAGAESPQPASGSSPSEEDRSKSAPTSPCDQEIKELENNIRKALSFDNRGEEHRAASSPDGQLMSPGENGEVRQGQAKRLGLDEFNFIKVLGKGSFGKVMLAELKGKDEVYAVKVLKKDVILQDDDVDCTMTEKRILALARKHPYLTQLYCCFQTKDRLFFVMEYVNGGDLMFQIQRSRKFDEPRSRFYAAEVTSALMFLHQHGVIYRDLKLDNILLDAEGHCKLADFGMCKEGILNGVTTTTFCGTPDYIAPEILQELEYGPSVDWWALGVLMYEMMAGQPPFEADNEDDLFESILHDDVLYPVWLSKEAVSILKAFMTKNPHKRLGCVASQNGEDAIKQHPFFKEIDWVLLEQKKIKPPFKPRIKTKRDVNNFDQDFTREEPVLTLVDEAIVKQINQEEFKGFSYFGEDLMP
Text: as §1

SIK2 = SIK2 (Homo sapiens, UniProt Q9H0K1)
Text: as §1

PCTK2 = molecular target: T6, PCTK2 (Homo sapiens, UniProt Q00537)
T6 construct: gene CDK17
Text: as §1

ITK = ITK (Homo sapiens, UniProt Q08881)
Text: as §1

Cn1c(=O)[nH]c2ccc(-c3cccc(C(=O)NC4CCn5ccnc5C4)c3)cc21 (stereo not shown) [Z36-MP5]
remaining binding at 1 µM (MAST1): 72%
remaining binding at 1 µM (MAP4K5): 39%
remaining binding at 1 µM (DYRK2): 84%
remaining binding at 1 µM (NLK): 59%
remaining binding at 1 µM (PRKCH): 52%
remaining binding at 1 µM (CSNK1E): 49%
remaining binding at 1 µM [1]: 79%
remaining binding at 1 µM (CSNK1D): 98%
remaining binding at 1 µM [2]: 67%
remaining binding at 1 µM (TNNI3K): 96%
remaining binding at 1 µM (SRC): 97%
remaining binding at 1 µM (INSR): 57%
remaining binding at 1 µM (CDC2L1): 88%
remaining binding at 1 µM (TAOK1): 100%
remaining binding at 1 µM (GRK7): 90%
remaining binding at 1 µM (YES): 99%
remaining binding at 1 µM (DMPK): 99%
remaining binding at 1 µM (CASK): 60%
remaining binding at 1 µM (PIK3CA): 97%
remaining binding at 1 µM [3]: 79%
remaining binding at 1 µM (RIPK2): 94%
remaining binding at 1 µM (PRKCE): 100%
remaining binding at 1 µM (SIK2): 81%
remaining binding at 1 µM (PCTK2): 94%
remaining binding at 1 µM (ITK): 96%
